Experimental data published in US12611423B2, “Medical use of tafoxiparin” (DILAFOR AB, priority 2022, dated 2026).

Tested on: term pregnant, nulliparous women with an unripe cervix
Test: Clinical phase II trial PPL17 (Parts A and B), subcutaneous tafoxiparin vs placebo
Type: in vivo, human
Conditions: for women achieving spontaneous onset of labor (FIG. 1): placebo 28.7%; for number of subjects (women) that reach spontaneous onset of labor / subjects (women) that reach spontaneous onset of labor, % of n: cumulative
Procedure: A clinical phase II trial is performed as a randomized, double-blind, placebo-controlled, parallel-group proof of concept study (Part A) with a conditional dose finding follow up study (Part B) to evaluate the efficacy, safety, tolerability and dose response of subcutaneously administered tafoxiparin as a supplement to induction therapy in term pregnant, nulliparous women with an unripe cervix. The study is performed in Sweden and Finland (PPL17), and an EMA (European Medicines Agency) description of the study can be found on the EU Clinical Trials Register web (www.clinicaltrialsregister.eu/ctr-search/search?query=PPL17).
A total of 170 term pregnant women are randomized to receive either 300 mg of tafoxiparin, or corresponding placebo (vehicle), administered subcutaneously every 24±3 hours and up to a total of 7 doses, or until partus (Part A).
In the dose finding follow up study (Part B), a total of 164 term pregnant women are randomized to receive either 75 or 150 mg of tafoxiparin administered subcutaneously every 24±3 hours […] and up to a total of 7 doses, or until partus.
To assess the efficacy of tafoxiparin on cervical ripening/cervical ripening rate, during and up to the first seven days of treatment, measured by Bishop score. All women must be examined to check the cervical state before enrollment.
Tafoxiparin/Placebo is supplied by Dilafor AB to the site as kits designed to constitute 300 mg of tafoxiparin or placebo for daily administration. Apart from the active substance, each ml of study drug will constitute 0.015 M phosphate buffer. The study medication kit for each patient will contain 8 doses consisting of 2 vials containing a minimum extractable volume of 1.6 ml of 150 mg/ml of tafoxiparin or placebo. One dose is a reserve dose in case a dose is rendered unusable. The investigational product should be administered subcutaneously every 24±3 hours by the site staff for up to 7 doses, or until partus. At each dosing time 1.0 ml of the drug will be extracted from each of the 2 vials and injected as separate s.c. injections in the abdominal or hip region.
Tafoxiparin/Placebo is supplied by Dilafor AB to the site as kits designed to constitute 75 or 150 mg of tafoxiparin for daily administration. Apart from the active substance, each ml of study drug will constitute 0.015 M phosphate buffer. The study medication kit for each patient will contain 8 doses consisting of 2 vials for each injection occasion containing a minimum extractable volume of 1.6 ml of 150 mg/ml of tafoxiparin or placebo. For subjects receiving 75 mg of tafoxiparin, one vial will contain active substance and one containing placebo. For subjects receiving 150 mg of tafoxiparin, both vials will contain active substance. One dose is a reserve dose in case a dose is rendered unusable. The investigational product should be administered subcutaneously every 24±3 hours by the site staff for up to 7 doses, or until partus. At each dosing time, 0.5 ml of the drug will be extracted from each of the 2 vials and injected as separate s.c. injections in the abdominal or hip region.
If the subject is found to be eligible for the study, they will be randomized to study treatment, i.e. 300 mg of tafoxiparin or corresponding placebo daily (Part A), or 75 or 150 mg daily (Part B).
The study medication will be administered subcutaneously in the abdominal or hip region for up to a total of 7 doses or until labor induction or spontaneous onset of labor. If the cervix is still unripe after 7 doses of IMP, the patient is given cervical balloon catheter as a mean of labor induction.
Subjects who enter into spontaneous onset of labor after 1-7 doses of IMP should be managed according to clinical routines.
Subjects who are given 4-7 doses without entering into spontaneous onset of labor, but with a ripe cervix (Bishop Score ≥6), should be induced into labor by amniotomy and oxytocin treatment, but not before 4 treatment doses have been given. […]

Q: What does the source list for tafoxiparin?
A: women achieving spontaneous onset of labor (FIG. 1) (75 mg s.c. once daily up to 7 doses, 33 women of 82, p-value 0.102): 40.2%; women reaching spontaneous onset of labor with uncomplicated delivery (75 mg, 22 of the 29 women, placebo 54.5%): 75.9%; number of subjects (women) that reach spontaneous onset of labor (75 mg, Study day 1, n = 33): 0; subjects (women) that reach spontaneous onset of labor, % of n (75 mg, Study day 1, n = 33): (0%); number of subjects (women) that reach spontaneous onset of labor (75 mg, Study day 2, n = 33): 3; subjects (women) that reach spontaneous onset of labor, % of n (75 mg, Study day 2, n = 33): (9%); number of subjects (women) that reach spontaneous onset of labor (75 mg, Study day 3, n = 33): 6; subjects (women) that reach spontaneous onset of labor, % of n (75 mg, Study day 3, n = 33): (18%); number of subjects (women) that reach spontaneous onset of labor (75 mg, Study day 4, n = 33): 11; subjects (women) that reach spontaneous onset of labor, % of n (75 mg, Study day 4, n = 33): (33%); number of subjects (women) that reach spontaneous onset of labor (75 mg, Study day 5, n = 33): 22; subjects (women) that reach spontaneous onset of labor, % of n (75 mg, Study day 5, n = 33): (67%); number of subjects (women) that reach spontaneous onset of labor (75 mg, Study day 6, n = 33): 25; subjects (women) that reach spontaneous onset of labor, % of n (75 mg, Study day 6, n = 33): (76%); number of subjects (women) that reach spontaneous onset of labor (75 mg, Study day 7, n = 33): 32; subjects (women) that reach spontaneous onset of labor, % of n (75 mg, Study day 7, n = 33): (97%); number of subjects (women) that reach spontaneous onset of labor (75 mg, Study day 8, n = 33): 33; subjects (women) that reach spontaneous onset of labor, % of n (75 mg, Study day 8, n = 33): (100%); Fetal distress as indication for operative delivery (ODFD), number of women (75 mg, n = 83): 16; Labor induced with PGE-1, number of women (75 mg, n = 83): 7; Labor induced with amniotomy, number of women (75 mg, n = 83): 46; Labor induced with oxytocin, number of women (75 mg, n = 83): 34; Labor induced, number of women (75 mg, n = 83): 48; Labor induction with Balloon catheter, number of women (75 mg, n = 83): 35; Number of patients with operative delivery (75 mg, n = 83): 32; Labor induced with PGE-1, % of women (75 mg, n = 83, placebo 10.2%): 8.4%; Fetal distress as indication for operative delivery (ODFD), % of women (75 mg, n = 83, placebo 22.7%): 19.3%; patients with operative delivery, % (75 mg, n = 83, placebo 45.5%): 38.6%; Labor induced with oxytocin, % of women (75 mg, n = 83, placebo 54.5%): 41.0%; Labor induced with amniotomy, % of women (75 mg, n = 83, placebo 56.8%): 55.4%; Labor induction with Balloon catheter, % of women (75 mg, n = 83, placebo 58.0%): 42.2%; Labor induced, % of women (75 mg, n = 83, placebo 70.5%): 57.8%; women needing instrumental delivery (FIG. 4, vaginal mode of partus) (75 mg, women with spontaneous onset of labor, 7 of the 29 women, p-value=0.181, placebo 45.5%): 24.1%; women needing instrumental delivery or caesarian section to reach partus (FIG. 5) (75 mg, women with spontaneous onset of labor, 11 of 33 women, placebo 52%): 33.3%; women reaching partus by vaginal delivery with no need for instrumental delivery nor caesarian section (FIG. 5) (75 mg, women with spontaneous onset of labor, 22 of 33 women, placebo 48%): 66.7%; women achieving spontaneous onset of labor (FIG. 1) (150 mg s.c. once daily up to 7 doses, 36 women of 85, p-value 0.039): 42.4%; women reaching spontaneous onset of labor with uncomplicated delivery (150 mg, 23 of the 32 women, placebo 54.5%): 71.9%; number of subjects (women) that reach spontaneous onset of labor (150 mg, Study day 1, n = 36): 0; subjects (women) that reach spontaneous onset of labor, % of n (150 mg, Study day 1, n = 36): (0%); number of subjects (women) that reach spontaneous onset of labor (150 mg, Study day 2, n = 36): 4; subjects (women) that reach spontaneous onset of labor, % of n (150 mg, Study day 2, n = 36): (11%); number of subjects (women) that reach spontaneous onset of labor (150 mg, Study day 3, n = 36): 15; subjects (women) that reach spontaneous onset of labor, % of n (150 mg, Study day 3, n = 36): (42%); number of subjects (women) that reach spontaneous onset of labor (150 mg, Study day 4, n = 36): 19; subjects (women) that reach spontaneous onset of labor, % of n (150 mg, Study day 4, n = 36): (53%); number of subjects (women) that reach spontaneous onset of labor (150 mg, Study day 5, n = 36): 26; subjects (women) that reach spontaneous onset of labor, % of n (150 mg, Study day 5, n = 36): (72%); number of subjects (women) that reach spontaneous onset of labor (150 mg, Study day 6, n = 36): 30; subjects (women) that reach spontaneous onset of labor, % of n (150 mg, Study day 6, n = 36): (83%); number of subjects (women) that reach spontaneous onset of labor (150 mg, Study day 7, n = 36): 34; subjects (women) that reach spontaneous onset of labor, % of n (150 mg, Study day 7, n = 36): (94%); number of subjects (women) that reach spontaneous onset of labor (150 mg, Study day 8, n = 36): 35; subjects (women) that reach spontaneous onset of labor, % of n (150 mg, Study day 8, n = 36): (97%); number of subjects (women) that reach spontaneous onset of labor (150 mg, Study day 9, n = 36): 36; subjects (women) that reach spontaneous onset of labor, % of n (150 mg, Study day 9, n = 36): (100%); Fetal distress as indication for operative delivery (ODFD), number of women (150 mg, n = 85): 20; Labor induced with PGE-1, number of women (150 mg, n = 85): 7; Labor induced with amniotomy, number of women (150 mg, n = 85): 39
